Like-named read-outs stand apart in the source and are kept apart here. Marks after values point to notes of the source that are not given here.
Columns and labels:
[1] = Preclinical PK, oral and IV; format: in vivo, rat; settings: for Cmax / Tmax / AUC(0-inf): po, 5 mg/kg; for AUC(0-inf): read-out: Oral AUCinf
[2] = tested on: CYP1A; test: CYP induction in plated human hepatocytes, phenacetin probe; format: in vitro ADME; settings: 48 hours
[3] = biological target: BTK (Homo sapiens, UniProt Q06187); test: BTK protein occupancy in OCI-LY10 tumor lysates of NSG mice; format: in vivo; design: free BTK protein in OCI-LY10 DLBCL tumor lysates harvested using an BTK occupancy assay; endogenous in cells; host or cells: OCI-LY10 human ABC-DLBCL cells grown as SC xenograft in NSG mice; tumour lysates; settings: for receptor occupancy at 10 mg/kg / receptor occupancy at 30 mg/kg / receptor occupancy at 100 mg/kg: OCI-Ly10, mouse
Sequence of BTK (Q06187 whole entry): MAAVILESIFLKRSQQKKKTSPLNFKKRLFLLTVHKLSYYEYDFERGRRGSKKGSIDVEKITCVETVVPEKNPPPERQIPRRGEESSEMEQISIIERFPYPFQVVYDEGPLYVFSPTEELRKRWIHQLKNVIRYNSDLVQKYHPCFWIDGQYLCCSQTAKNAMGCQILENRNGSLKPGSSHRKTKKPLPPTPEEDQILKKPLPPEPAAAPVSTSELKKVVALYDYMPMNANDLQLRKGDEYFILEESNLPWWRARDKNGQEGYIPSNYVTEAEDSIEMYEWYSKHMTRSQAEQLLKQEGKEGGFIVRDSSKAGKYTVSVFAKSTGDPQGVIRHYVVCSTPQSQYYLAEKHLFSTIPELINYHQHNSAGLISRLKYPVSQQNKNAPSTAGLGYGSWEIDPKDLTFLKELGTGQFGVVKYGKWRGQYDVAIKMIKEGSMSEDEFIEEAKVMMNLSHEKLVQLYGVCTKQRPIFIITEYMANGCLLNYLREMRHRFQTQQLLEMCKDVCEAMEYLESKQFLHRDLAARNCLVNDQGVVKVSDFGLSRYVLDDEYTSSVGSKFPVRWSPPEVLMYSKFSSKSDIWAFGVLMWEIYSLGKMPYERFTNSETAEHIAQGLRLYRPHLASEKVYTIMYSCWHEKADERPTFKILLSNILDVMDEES
Experimental: FIG. 19 depicts BTK protein occupancy in OCI-LY10 ABC-DLBCL tumor lysates of NSG mice treated with the compound of Formula (III). Unoccupied BTK protein levels are graphed as % normalized to vehicle control BTK levels ±SEM. Female mice were implanted SC on the right flank on day 0. Tumors were established 39 days post implantation, randomized into experimental groups and dosed orally with a single dose (n=5/dose level/time point). Tumor samples were harvested 4, 12 and 24 hours after compound administration.
(§1) To evaluate the duration of signaling shutdown and occupancy of BTK protein after compound administration, we determined the amount of free BTK protein in OCI-LY10 DLBCL tumor lysates harvested using an BTK occupancy assay. […] BTK protein occupancy levels remained high with 71%, 94% and 96%, respectively, at 12 hours and 70%, 91% and 85%, respectively after 24 hours. (FIG. 19). The antitumor efficacy of compound of Formula (III) was assessed in mice bearing established SC OCI-LY10 human CD79b mutant DLBCL xenografts in female NSG mice, dosed either once (QD) or twice (BID) a day. Analysis of tumor growth inhibition was performed 14 days into the 21-day treatment period (Day 45) as that was the last day when 2/3 of the vehicle controls remained on the study. Compound of Formula (III) induced tumor growth inhibition in the OCI-LY10 model at all dose levels. […] Taken together, the in vivo data support a first in-human trial of the compound of Formula (III) in combination with Venetoclax in patients with B cell lymphomas.

[4] = Intestinal microsomal stability; format: in vitro ADME; settings: intestinal microsomes
Excerpt: In human hepatocytes, the compound of Formula (III) is metabolized by CYP3A through mono-oxidations and N-dealkylations and by GSH conjugation to its acrylamide functionality. It bears moderate metabolic stability in hepatocytes across species and is slowly metabolized in human intestinal microsomes fortified with NADPH.

[5] = biological target: T1, CYP3A4 (Homo sapiens, UniProt P08684); test: Chemical inhibition of turnover in pooled human liver microsomes (ketoconazole); format: in vitro ADME; settings: 1 μM, HLM 0.5 mg/mL
T1 construct: with specific CYP probe substrates in human liver microsomes; from tissue; host or cells: human liver microsomes
T1 sequence (P08684 whole entry): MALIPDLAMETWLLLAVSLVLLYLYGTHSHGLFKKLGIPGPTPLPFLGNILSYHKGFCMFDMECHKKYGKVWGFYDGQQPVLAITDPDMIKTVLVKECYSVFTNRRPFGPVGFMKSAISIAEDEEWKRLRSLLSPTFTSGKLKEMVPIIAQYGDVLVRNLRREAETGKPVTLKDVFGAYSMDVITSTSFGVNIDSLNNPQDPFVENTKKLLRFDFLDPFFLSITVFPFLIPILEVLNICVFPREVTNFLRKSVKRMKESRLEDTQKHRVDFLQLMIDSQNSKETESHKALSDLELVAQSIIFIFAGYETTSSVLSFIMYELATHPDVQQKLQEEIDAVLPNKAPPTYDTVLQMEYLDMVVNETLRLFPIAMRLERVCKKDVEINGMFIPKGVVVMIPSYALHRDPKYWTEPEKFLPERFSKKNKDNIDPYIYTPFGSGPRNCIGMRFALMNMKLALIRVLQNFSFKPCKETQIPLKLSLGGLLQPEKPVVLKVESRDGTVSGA

[6] = tested on: OCI-LY10 xenografts; test: OCI-LY10 human ABC-DLBCL xenograft efficacy; format: in vivo, female NSG mice; settings: Day 45
Excerpt: FIG. 20 depicts the effect of the compound of Formula (III) on growth of established OCI-LY10 human ABC-DLBCL xenografts in mice PEG400/PVP-VA64, Polyethylene glycol 400/N-vinylpyrrolidone and vinyl acetate 64; SEM, standard error of the mean. Group tumor volumes are graphed as the mean±SEM. Bar below x-axis indicates the treatment period. Groups are plotted while at least ⅔ of the animals remained on the study. Mice were implanted SC on the right flank on Day 0. Tumors were established 33 days post implantation, mice were randomized into experimental groups and dosed orally twice or once daily for 3 weeks (n=10/group).
as §1

[7] = Blood-to-plasma concentration ratio; format: in vitro ADME; settings: monkey, fresh blood
[8] = Metabolic stability in liver microsomes; format: in vitro ADME, rat
Experimental: Additional Data on Preclinical PK Profile—Protein binding of the compound of Formula (III) was studied using an equilibrium dialysis method in plasma from human, cynomolgus monkey, beagle dog, Sprague Dawley rat, CD-1 mouse, and guinea pig at 0.25, 2.5, and 25 μM. […] In human and monkey, the plasma protein binding was concentration dependent. […] Free fraction of the compound of Formula (III) in liver microsomes from various species ranged from 75.1% to 87.9% at 0.25 mg/mL and from 58.9% to 86.5% at 1.0 mg/mL (Table 17). […] In hepatocytes, the compound of Formula (III) turnover followed a similar trend, with T1/2 ranging from 75.3 minutes in monkey to 278.1 minutes in human.

[9] = rat, in vivo, 5 mg/kg crystalline suspension PO (0.5% HPMC)
[10] = rat, in vivo, 5 mg/kg solution PO (20% HPβCD)

In the case of C=CC(=O)N[C@H]1CCC[C@H]1NC(=O)c1sc2nccc3c2c1NC(=O)N3c1cnc(CC(C)C)cc1C (atropisomer, axis not shown) [compound of Formula (III), N-((1R,2S)-2-Acrylamidocyclopentyl)-5-(S)-(6-isobutyl-4-methylpyridin-3-yl)-4-oxo-4,5-dihydro-3H-1-thia-3,5,8-triazaacenaphthylene-2-carboxamide], the F ([1]; 5 mg/kg crystalline suspension PO (0.5% HPMC)) is reported as 41 ± 19^b %, the F ([1]; 5 mg/kg solution PO (20% HPβCD)) is reported as 28 ± 6^a; % and the clearance ([1]; rat, in vivo, iv) is reported as 55 ± 2 mL/min/kg. It also gave a half-life ([1]; rat, in vivo, iv, read-out: IV T1/2 (converted)) of 24 min, a Vd ([1]; rat, in vivo, iv, read-out: Vss) of 1.9 ± 0.2 L/kg and a Cmax [1, 9] of 133 ± 53 ng/mL. It also gave a Tmax [1, 9] of 102 ± 36 min, an AUC(0-inf) [1, 9] of 626 ± 290 ng·h/mL and a Cmax [1, 10] of 189 ± 81 ng/mL. For the same compound, the Tmax [1, 10] was 30 min, the AUC(0-inf) [1, 10] was 425 ± 96 ng·h/mL and the “change in CYP1A enzyme activity” value ([2]; 1 μM) was 0.2%. The “change in CYP1A enzyme activity” value ([2]; 10 μM) was 1.0%, the “BTK protein occupancy in tumor” value ([3]; 1 mg/kg) was “No BTK occupancy” and the “BTK protein occupancy in tumor” value ([3]; 3 mg/kg) was “No BTK occupancy”. It also gave a receptor occupancy at 10 mg/kg ([3]; 4 hours) of 54%, a receptor occupancy at 10 mg/kg ([3]; 12 hours) of 71% and a receptor occupancy at 10 mg/kg ([3]; 24 hours) of 70%. For the same compound, the receptor occupancy at 30 mg/kg ([3]; 4 hours) was 90%, the receptor occupancy at 30 mg/kg ([3]; 12 hours) was 94% and the receptor occupancy at 30 mg/kg ([3]; 24 hours) was 91%. The receptor occupancy at 100 mg/kg ([3]; 4 hours) was 95%, the receptor occupancy at 100 mg/kg ([3]; 12 hours) was 96% and the receptor occupancy at 100 mg/kg ([3]; 24 hours) was 85%. For the same compound, the microsomal CLint ([4]; Sprague Dawley, rat) was < 3.9 µL/min/mg, the microsomal CLint ([4]; beagle, dog) was < 3.9 µL/min/mg and the microsomal CLint ([4]; human) was 14.1 µL/min/mg. The “inhibition of turnover by ketoconazole” value [5] was > 97%, the TGI ([6]; 5 mg/kg BID) was 26% and the ΔTGI ([6]; 5 mg/kg BID) was 34%. It also gave a TGI ([6]; 10 mg/kg QD) of 24%, a ΔTGI ([6]; 10 mg/kg QD) of 30% and a TGI ([6]; 15 mg/kg BID) of 51%. It also gave a ΔTGI ([6]; 15 mg/kg BID) of 66%, a TGI ([6]; 30 mg/kg QD) of 35% and a ΔTGI ([6]; 30 mg/kg QD) of 45%. The TGI ([6]; 50 mg/kg BID) was 78%, the ΔTGI ([6]; 50 mg/kg BID) was 102% and the TGI ([6]; 100 mg/kg QD) was 51%. The ΔTGI ([6]; 100 mg/kg QD) was 65%, the blood plasma ratio at 1 μM [7] was 0.69 and the “Extraction Ratio, liver microsomes” value ([8]; Rat) was 0.58. It also gave a microsomal CLint ([8]; rat, liver microsomes) of 53.8 µL/min/mg and a half-life ([8]; rat, liver microsomes, read-out: T1/2, liver microsomes) of 12.9 min.
